Results published in patent US20250194599A1, “PESTICIDE FORMULATIONS” (FMC CORPORATION, priority 2022, published 2025).

Legend:
Assay type in all cases: in vivo
[1] = system: Cydia pomonella; assay: Field trial Example 1: pupae counts in corrugated cardboard tree bands on 100 trees; settings: Trial 4 (highest infestation), programs of Table 1
Description: (§1) A field trial was conducted in Argentina to determine the effect of blending codling moth pheromone, (E,E)-8,10-dodecadien-1-ol, with chlorantraniliprole for control of coding moth population in apple orchards. The first flight of codling moth was targeted, at which time standard grower treatment pheromone dispensers had been placed in the respective fields. Applications of the chlorantraniliprole or chlorantraniliprole+pheromone were timed when eggs were expected to hatch.
(§2) Treatment programs comprising nine tracts of land across three farms were performed (see FIGS. 1A-C). SC=suspension concentrate; VP=vapor releasing product; WG=water-dispersible granules.
(§3) In brief, one treatment program was performed using an application of pheromone alone at 90 DD followed by applications of chlorantraniliprole plus pheromone at 250 DD and 250DD+21 days, respectively. A separate treatment was performed by applying chlorantraniliprole alone at 250 DD and 250DD+21 days. […]
(§4) Treatment effects were determined by conducting fruit damage counts prior to second generation flights by evaluating 1000 fruit in each plot for codling moth damage. […] The bands were removed during the second week of January, taken to the lab and counted.

[2] = system: Cydia pomonella; assay: Field trial Example 1: fruit damage counts, 1000 fruit per plot, apple orchards; settings: Trial 4 (highest codling moth infestation), apple orchard, Argentina; programs of Table 1; letters = significantly different groups (Chi-square)
Description: as §1, §2, §3, §4

[3] = system: Cydia pomonella; assay: Field trial Example 2: number of damaged fruit across treatment groups, apple; settings: Example 2, foliar application, treatments of Table 4, FIGS. 4-5
Description: (§5) A field trial was conducted in Argentina to evaluate the efficacy of chlorantraniliprole in combination with a kairomone, ethyl (2E,4Z)-2,4-decadienoate, to improve Cydia pomonella control in foliar application of apple (Malus domestica) compared to the efficacy of chlorantraniliprole alone and kairomone alone. SC=suspension concentrate; CS=capsule suspension
(§6) Efficacy of the trial was evaluated by (1) comparing the number of damaged fruit across the treatment groups; and (2) comparing the larva captured per hectare that were captured from corrugated cardboard traps settled in 100 trees. As shown in FIGS. 4-5, there was a significant difference in damaged fruits treatments that included chlorantraniliprole+kairomone compared to fruits treated with only chlorantraniliprole.

[4] = system: Cydia pomonella; assay: Field trial Example 2: larva per hectare captured from corrugated cardboard traps in 100 trees; settings: treatments of Table 4, FIG. 6
Description: as §5, §6

| SMILES | # of Pupae Found [1] | # Damaged Fruit/ 1000 fruit [2] | damaged fruits out of 1000 fruits per treatment [3] | larva per hectare captured in corrugated cardboard traps [4] |
| --- | --- | --- | --- | --- |
| CNC(=O)c1cc(Cl)cc(C)c1NC(=O)c1cc(Br)nn1-c1ncccc1Cl [Chlorantraniliprole Alone, 3-bromo-N-(4-chloro-2-methyl-6-(methylcarbamoyl)phenyl)-1-(3-chloropyridin-2-yl)-1H-pyrazole-5-carboxamide] | 1782 | 39c | – | – |
| CCCCC/C=C\C=C\C(=O)OCC [Kairomone, ethyl (2E,4Z)-2,4-decadienoate] | – | – | number of damaged fruits significantly higher compared to all other treatments | larva per hectare significantly higher compared to all other treatments |
